Results on 7 compounds are retold here after ChEMBL document CHEMBL1141360, “Kadsuralignans H-K from Kadsura coccinea and their nitric oxide production inhibitory effects” (J Nat Prod, 2007).

Test [1] concerns RAW264.7. In words: Inhibition of LPS and INF-gamma-induced nitric oxide production in mouse RAW264.7 cells after 16 hrs. The conditions noted are these: for IC50: RAW264.7, 16 h.
Test [2] has as its system RAW264.7. In words: Inhibition of LPS-induced nitric oxide production in mouse RAW264.7 cells. It is filed as functional, cell-based.

Activity calls are given as the source filed them. The calls are words filed in the database; no cut-off is given here.

On to `C/C=C(/C)C(=O)O[C@H]1C2=CC(=O)C(OC)=C(OC)[C@@]23COc2c4c(cc(c23)[C@H](OC(C)=O)[C@H](C)[C@]1(C)O)OCO4`, for which the result in the test on RAW264.7 [1] was inactive.
Same read-out and setting: then `COC1=C(OC)[C@]23COc4c5c(cc(c42)[C@H](OC(=O)c2ccccc2)[C@H](C)[C@](C)(O)[C@@H](OC(C)=O)C3=CC1=O)OCO5`, with “inactive”; and `COc1cc2c(c(OC(=O)c3ccccc3)c1OC)-c1c(cc3c(c1OC)OCO3)[C@H](O)[C@H](C)[C@H](C)C2`, with “inactive”.
Consider `COc1cc([C@@H]2c3c(cc(OC)c(OC)c3O)C[C@@H](C)[C@H]2C)cc2c1OCO2` [KADSURALIGNAN H], for which the IC50 with RAW264.7 [1] worked out at 19.6 µM.
The compound `C/C=C(\C)C(=O)Oc1c(OC)c(OC)cc2c1-c1c(cc3c(c1OC)OCO3)[C@H](O)[C@H](C)[C@H](C)C2` [KADSURALIGNAN I] showed an IC50 in the test on RAW264.7 [1] of 87.2 µM.
As to `CCC(C)C(=O)Oc1c(OC)c(OC)cc2c1-c1c(cc3c(c1OC)OCO3)[C@H](O)[C@H](C)[C@H](C)C2` (stereo partly drawn) [KADSURALIGNAN J], the IC50 with RAW264.7 [1] is 33.5 µM.
For `O=c1c(O)c(-c2ccc(O)c(O)c2)oc2cc(O)cc(O)c12` [QUERCETIN], the results for the IC50 in the test on RAW264.7 [2] and in the test with RAW264.7 [1] were 26.8 µM and 25 µM, respectively.

What is called IC50 is the point on the concentration scale where inhibition reaches its midpoint. Low readings indicate higher potency, high ones lower potency.
